EC50 data for 19 compounds are collected here from patent US10736883B2, “Triazole furan compounds as agonists of the APJ receptor” (AMGEN INC., priority 2016, dated 2020).

The target in the assay is APJ receptor (Homo sapiens (Human), UniProt P35414). The assay is described as follows: [35S]GTPγS binding assay on membranes from CHO cells stably expressing human APJ receptor. The conditions noted are these: membranes of CHO cells stably expressing human APJ receptor, means of several independent experiments, read-out: Activity hAPJ SPA EC50 IP. It is filed as biochemical. The method, boiled down:
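EC50 values were obtained by non-linear regression of [35S]GTPγS (0.2 nM) binding after 90 min at RT, with nonspecific binding defined by 100 μM GTPγS. Reactions used human APJ–expressing CHO cell membranes on WGA PS beads in HEPES pH 7.5 buffer with 5 mM MgCl2, 200 mM NaCl, 3 μM GDP and 0.1% BSA.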

APJ receptor, sequence (P35414 whole entry): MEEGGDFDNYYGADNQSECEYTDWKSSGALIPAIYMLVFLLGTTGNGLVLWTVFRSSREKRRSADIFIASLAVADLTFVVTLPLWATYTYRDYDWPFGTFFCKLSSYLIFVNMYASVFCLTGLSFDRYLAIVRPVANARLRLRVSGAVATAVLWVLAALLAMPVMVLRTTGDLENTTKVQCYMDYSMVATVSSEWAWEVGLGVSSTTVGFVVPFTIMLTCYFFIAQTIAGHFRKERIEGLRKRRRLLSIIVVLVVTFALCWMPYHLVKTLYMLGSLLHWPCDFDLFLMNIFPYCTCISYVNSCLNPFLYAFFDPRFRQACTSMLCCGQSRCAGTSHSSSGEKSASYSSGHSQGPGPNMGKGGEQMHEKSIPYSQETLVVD

For orientation: EC50 means the concentration giving half of the maximal effect. Regarding “(1R,2S)-1-(5-chloro-2-pyrimidinyl)-N-(4-(2,6-dimethoxyphenyl)-5-(5-methyl-2-furanyl)-4H-1,2,4-triazol-3-yl)-1-hydroxy-2-propanesulfonamide or (1S,2R)-1-(5-chloro-2-pyrimidinyl)-N-(4-(2,6-dimethoxyphenyl)-5-(5-methyl-2-furanyl)-4H-1,2,4-triazol-3-yl)-1-hydroxy-2-propanesulfonamide [Example 212.0]”, the EC50 came to 0.074 nM.
With `COc1cccc(OC)c1-n1c(NS(=O)(=O)[C@H](C)[C@H](OC)c2cn3ccccc3n2)nnc1-c1ccc(C)o1` (single isomer, unassigned) [Example 268.0, (1S,2S)—N-(4-(2,6-Dimethoxyphenyl)-5-(5-methyl-2-furanyl)-4H-1,2,4-triazol-3-yl)-1-imidazo[1,2-a]pyridin-2-yl-1-methoxy-2-propanesulfonamide or (1R,2R)—N-(4-(2,6-dimethoxyphenyl)-5-(5-methyl-2-furanyl)-4H-1,2,4-triazol-3-yl)-1-imidazo[1,2-a]pyridin-2-yl-1-methoxy-2-propanesulfonamide], the EC50 came out at 0.47 nM.
For `COc1cccc(OC)c1-n1c(NS(=O)(=O)[C@H](C)[C@@H](O)c2ncc(F)cn2)nnc1-c1ccc(C)o1` (single isomer, unassigned) [Example 93.0, (1R,2S)—N-(4-(2,6-Dimethoxyphenyl)-5-(5-methyl-2-furanyl)-4H-1,2,4-triazol-3-yl)-1-(5-fluoro-2-pyrimidinyl)-1-hydroxy-2-propanesulfonamide or (1S,2R)—N-(4-(2,6-dimethoxyphenyl)-5-(5-methyl-2-furanyl)-4H-1,2,4-triazol-3-yl)-1-(5-fluoro-2-pyrimidinyl)-1-hydroxy-2-propanesulfonamide], the EC50 was 0.14 nM.
As to `COc1cccc(OC)c1-n1c(NS(=O)(=O)[C@@H](C)[C@H](O)c2cn3ccccc3n2)nnc1-c1ccc(C)o1` (single isomer, unassigned) [Example 265.0, (1R,2S)—N-(4-(2,6-Dimethoxyphenyl)-5-(5-methyl-2-furanyl)-4H-1,2,4-triazol-3-yl)-1-hydroxy-1-imidazo[1,2-a]pyridin-2-yl-2-propanesulfonamide or (1S,2R)—N-(4-(2,6-dimethoxyphenyl)-5-(5-methyl-2-furanyl)-4H-1,2,4-triazol-3-yl)-1-hydroxy-1-imidazo[1,2-a]pyridin-2-yl-2-propanesulfonamide], the half-maximal effective concentration (EC50) worked out at 0.18 nM.
In the case of `COc1cccc(OC)c1-n1c(NS(=O)(=O)[C@H](C)[C@H](O)c2ccccn2)nnc1-c1ccc(C)o1` (stereo in doubt) [Example 90.0, (1R,2R)-N-(4-(2,6-dimethoxyphenyl)-5-(5-methylfuran-2-yl)-4H-1,2,4-triazol-3-yl)-1-hydroxy-1-(pyridin-2-yl)propane-2-sulfonamide compound and (1S,2S)-N-(4-(2,6-dimethoxyphenyl)-5-(5-methylfuran-2-yl)-4H-1,2,4-triazol-3-yl)-1-hydroxy-1-(pyridin-2-yl)propane-2-sulfonamide], the EC50 stood at 3.9 nM.
Regarding `COc1cccc(OC)c1-n1c(NS(=O)(=O)[C@H](C)Cc2ccc(Cl)cn2)nnc1-c1ccco1` (single isomer, unassigned) [Example 11.0, (2R)-1-(5-chloro-2-pyridinyl)-N-(4-(2,6-dimethoxyphenyl)-5-(2-furanyl)-4H-1,2,4-triazol-3-yl)-2-propanesulfonamide or (2S)-1-(5-chloro-2-pyridinyl)-N-(4-(2,6-dimethoxyphenyl)-5-(2-furanyl)-4H-1,2,4-triazol-3-yl)-2-propanesulfonamide], the EC50 turned out to be 0.14 nM.
The value for `COc1cccc(OC)c1-n1c(NS(=O)(=O)[C@@H](CCO)[C@H](C)c2ncc(C)cn2)nnc1-c1ccc(C)o1` (racemic) [Example 77.0] was 0.77 nM; that for `COc1cccc(OC)c1-n1c(NS(=O)(=O)[C@H](C)[C@H](O)c2ccnc3c2OCCC3)nnc1-c1ccc(C)o1` (racemic) [Example 291.0, (1R,2R)-1-(3,4-Dihydro-2H-pyrano[3,2-b]pyridin-8-yl)-N-(4-(2,6-dimethoxyphenyl)-5-(5-methyl-2-furanyl)-4H-1,2,4-triazol-3-yl)-1-hydroxy-2-propanesulfonamide and (1S,2S)-1-(3,4-dihydro-2H-pyrano[3,2-b]pyridin-8-yl)-N-(4-(2,6-dimethoxyphenyl)-5-(5-methyl-2-furanyl)-4H-1,2,4-triazol-3-yl)-1-hydroxy-2-propanesulfonamide] was 5 nM.
As for `COc1cccc(OC)c1-n1c(NS(=O)(=O)[C@@H](C)C2(O)COC2)nnc1-c1ccc(C)o1` (single isomer, unassigned) [Example 311.0, (1S)—N-(4-(2,6-Dimethoxyphenyl)-5-(5-methyl-2-furanyl)-4H-1,2,4-triazol-3-yl)-1-(3-hydroxy-3-oxetanyl)ethanesulfonamide or (1R)—N-(4-(2,6-dimethoxyphenyl)-5-(5-methyl-2-furanyl)-4H-1,2,4-triazol-3-yl)-1-(3-hydroxy-3-oxetanyl)ethanesulfonamide], the figure is 190 nM.
`COc1cccc(OC)c1-n1c(NS(=O)(=O)C[C@](C)(O)c2ncc(C#N)cn2)nnc1-c1ccc(C)o1` (single isomer, unassigned) [Example 233.0, (R)-2-(5-Cyanopyrimidin-2-yl)-N-(4-(2,6-dimethoxyphenyl)-5-(5-methylfuran-2-yl)-4H-1,2,4-triazol-3-yl)-2-hydroxypropane-1-sulfonamide or (S)-2-(5-cyanopyrimidin-2-yl)-N-(4-(2,6-dimethoxyphenyl)-5-(5-methylfuran-2-yl)-4H-1,2,4-triazol-3-yl)-2-hydroxypropane-1-sulfonamide]: the EC50 came to 0.5 nM.
The value for `COc1cccc(OC)c1-n1c(NS(=O)(=O)[C@@H](C)[C@@H](OC)c2ncc(F)cn2)nnc1-c1ccc(C)o1` (single isomer, unassigned) [Example 132.0, (1S,2S)-N-(4-(2,6-dimethoxyphenyl)-5-(5-methylfuran-2-yl)-4H-1,2,4-triazol-3-yl)-1-(5-fluoropyrimidin-2-yl)-1-methoxypropane-2-sulfonamide or (1R,2R)-N-(4-(2,6-dimethoxyphenyl)-5-(5-methylfuran-2-yl)-4H-1,2,4-triazol-3-yl)-1-(5-fluoropyrimidin-2-yl)-1-methoxypropane-2-sulfonamide] was 6.8 nM; that for `COc1cccc(OC)c1-n1c(NS(=O)(=O)[C@H](C)Cc2ncc(Cl)cn2)nnc1-c1ccco1` (single isomer, unassigned) [Example 37.0, (2R)-1-(5-chloro-2-pyrimidinyl)-N-(4-(2,6-dimethoxyphenyl)-5-(2-furanyl)-4H-1,2,4-triazol-3-yl)-2-propanesulfonamide or (2S)-1-(5-chloro-2-pyrimidinyl)-N-(4-(2,6-dimethoxyphenyl)-5-(2-furanyl)-4H-1,2,4-triazol-3-yl)-2-propanesulfonamide] was 3.6 nM; that for `COc1cccc(OC)c1-n1c(NS(=O)(=O)[C@@H](C)[C@H](O)c2cn3ccccc3n2)nnc1-c1ccc(C)o1` (single isomer, unassigned) [Example 289.0, (1R,2S)—N-(4-(2,6-Dimethoxyphenyl)-5-(5-methyl-2-furanyl)-4H-1,2,4-triazol-3-yl)-1-hydroxy-1-imidazo[1,2-a]pyridin-2-yl-2-propanesulfonamide or (1S,2R)—N-(4-(2,6-dimethoxyphenyl)-5-(5-methyl-2-furanyl)-4H-1,2,4-triazol-3-yl)-1-hydroxy-1-imidazo[1,2-a]pyridin-2-yl-2-propanesulfonamide] was 4.9 nM.
As for `COC[C@H]1CCCC(=O)N1C[C@@H](C)S(=O)(=O)Nc1nnc(-c2ccc(C)o2)n1-c1c(OC)cccc1OC` (single isomer, unassigned) [Example 150.0], the figure is 0.22 nM; as for `COc1cccc(OC)c1-n1c(NS(=O)(=O)[C@H]2CCCN(c3ncc(F)cn3)C2)nnc1-c1ccco1` [Example 206.0, (3S)—N-(4-(2,6-Dimethoxyphenyl)-5-(2-furanyl)-4H-1,2,4-triazol-3-yl)-1-(5-fluoro-2-pyrimidinyl)-3-piperidinesulfonamide], 4.8 nM; as for `COc1cccc(OC)c1-n1c(NS(=O)(=O)[C@@H](C)[C@H](O)c2ccc(C#N)cc2F)nnc1-c1ccc(C)o1` (single isomer, unassigned) [Example 61.0], 0.2 nM.
As for `COc1cccc(OC)c1-n1c(NS(=O)(=O)[C@@H]2C[C@@H](c3ccc(F)cc3)CN(C(C)=O)C2)nnc1-c1ccc(C)o1` (single isomer, unassigned) [Example 171.0, (3R,5S)-1-Acetyl-N-(4-(2,6-dimethoxyphenyl)-5-(5-methyl-2-furanyl)-4H-1,2,4-triazol-3-yl)-5-(4-fluorophenyl)-3-piperidinesulfonamide or (3S,5R)-1-acetyl-N-(4-(2,6-dimethoxyphenyl)-5-(5-methyl-2-furanyl)-4H-1,2,4-triazol-3-yl)-5-(4-fluorophenyl)-3-piperidinesulfonamide], the figure is 1.2 nM; as for `COc1cccc(OC)c1-n1c(NS(=O)(=O)[C@@H]2CC[C@@H](O)[C@H](O)C2)nnc1-c1ccc(C)o1` (single isomer, unassigned) [Example 407.0], 180 nM; as for `COc1cccc(OC)c1-n1c(NS(=O)(=O)[C@@H](C)[C@@H](O)c2cn3ccccc3n2)nnc1-c1ccc(C)o1` (single isomer, unassigned) [Example 308.0, (1S,2S)—N-(4-(2,6-Dimethoxyphenyl)-5-(5-methyl-2-furanyl)-4H-1,2,4-triazol-3-yl)-1-hydroxy-1-imidazo[1,2-a]pyridin-2-yl-2-propanesulfonamide or (1R,2R)—N-(4-(2,6-dimethoxyphenyl)-5-(5-methyl-2-furanyl)-4H-1,2,4-triazol-3-yl)-1-hydroxy-1-imidazo[1,2-a]pyridin-2-yl-2-propanesulfonamide], 33 nM.
